# Source: publication doi:10.1101/2020.06.11.145995v1 (biorxiv, 2020)
# Where two headings read alike, the source gives them in different places.
# Legend:
# Assay in all cases: biochemical
# [1] = target: ABL1(F317I)-nonphosphorylated (Homo sapiens, UniProt P00519, F317I)
# [2] = target: ABL1(Y253F)-phosphorylated (Homo sapiens, UniProt P00519, Y253F)
# [3] = target: ABL1(H396P)-nonphosphorylated (Homo sapiens, UniProt P00519, H396P)
# [4] = target: ABL1(T315I)-nonphosphorylated (Homo sapiens, UniProt P00519, T315I)
# STK33 = STK33 (Homo sapiens, UniProt Q9BYT3)
# [5] = target: JAK3(JH1domain-catalytic) (Homo sapiens, UniProt P52333)
# PDPK1 = PDPK1 (Homo sapiens, UniProt O15530)
# PAK3 = PAK3 (Homo sapiens, UniProt O75914)
# PLK3 = PLK3 (Homo sapiens, UniProt Q9H4B4)
# RIOK2 = RIOK2 (Homo sapiens, UniProt Q9BVS4)
# PIK3CA(E545K) = PIK3CA(E545K) (Homo sapiens, UniProt P42336, E545K)
# ULK2 = ULK2 (Homo sapiens, UniProt Q8IYT8)
# TNK2 = TNK2 (Homo sapiens, UniProt Q07912)
# p38-alpha = p38-alpha (Homo sapiens, UniProt Q16539)
# TAK1 = TAK1 (Homo sapiens, UniProt O43318)
# WEE2 = WEE2 (Homo sapiens, UniProt P0C1S8)
# PCTK3 = PCTK3 (Homo sapiens, UniProt Q07002)
# RSK4 = RSK4 (Homo sapiens, UniProt Q9UK32)
# PIK3CA(H1047L) = PIK3CA(H1047L) (Homo sapiens, UniProt P42336, H1047L)
# VEGFR2 = VEGFR2 (Homo sapiens, UniProt P35968)
# PHKG1 = PHKG1 (Homo sapiens, UniProt Q16816)
# SLK = SLK (Homo sapiens, UniProt Q9H2G2)
# TEC = TEC (Homo sapiens, UniProt P42680)
# RIPK2 = RIPK2 (Homo sapiens, UniProt O43353)
# SRC = SRC (Homo sapiens, UniProt P12931)
# ZAK = ZAK (Homo sapiens, UniProt Q9NYL2)
# LTK = LTK (Homo sapiens, UniProt P29376)
# DYRK1B = DYRK1B (Homo sapiens, UniProt Q9Y463)
# [6] = read-out: CPT-1-70-1 (1uM) % control
# [7] = read-out: CPT-1-70-1 (1μM) % control
# [8] = read-out: HYJ-2-002-1 (1uM) % control
# [9] = read-out: HYJ-2-002-1 (1μM) % control
# Sequence of RSK4 (Q9UK32 whole entry): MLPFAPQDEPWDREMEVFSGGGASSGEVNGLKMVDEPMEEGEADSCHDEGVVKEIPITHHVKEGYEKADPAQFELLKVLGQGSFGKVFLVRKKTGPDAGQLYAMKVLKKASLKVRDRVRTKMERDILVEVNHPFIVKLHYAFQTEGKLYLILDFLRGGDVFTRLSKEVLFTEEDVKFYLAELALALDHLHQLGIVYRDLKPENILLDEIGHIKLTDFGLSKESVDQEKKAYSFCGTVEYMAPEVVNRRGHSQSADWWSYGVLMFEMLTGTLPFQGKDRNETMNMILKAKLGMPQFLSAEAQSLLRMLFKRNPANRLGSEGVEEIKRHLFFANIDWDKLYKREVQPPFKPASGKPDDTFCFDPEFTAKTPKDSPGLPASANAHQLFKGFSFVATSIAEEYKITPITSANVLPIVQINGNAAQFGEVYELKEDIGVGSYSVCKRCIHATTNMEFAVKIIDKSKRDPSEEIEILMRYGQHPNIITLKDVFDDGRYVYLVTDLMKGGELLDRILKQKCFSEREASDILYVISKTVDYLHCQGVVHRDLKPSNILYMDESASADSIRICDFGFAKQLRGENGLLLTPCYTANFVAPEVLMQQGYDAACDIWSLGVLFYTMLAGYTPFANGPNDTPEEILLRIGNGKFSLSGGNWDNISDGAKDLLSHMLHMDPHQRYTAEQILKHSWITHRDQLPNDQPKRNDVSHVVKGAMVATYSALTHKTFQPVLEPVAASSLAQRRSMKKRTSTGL
# Sequence of PDPK1 (O15530 whole entry): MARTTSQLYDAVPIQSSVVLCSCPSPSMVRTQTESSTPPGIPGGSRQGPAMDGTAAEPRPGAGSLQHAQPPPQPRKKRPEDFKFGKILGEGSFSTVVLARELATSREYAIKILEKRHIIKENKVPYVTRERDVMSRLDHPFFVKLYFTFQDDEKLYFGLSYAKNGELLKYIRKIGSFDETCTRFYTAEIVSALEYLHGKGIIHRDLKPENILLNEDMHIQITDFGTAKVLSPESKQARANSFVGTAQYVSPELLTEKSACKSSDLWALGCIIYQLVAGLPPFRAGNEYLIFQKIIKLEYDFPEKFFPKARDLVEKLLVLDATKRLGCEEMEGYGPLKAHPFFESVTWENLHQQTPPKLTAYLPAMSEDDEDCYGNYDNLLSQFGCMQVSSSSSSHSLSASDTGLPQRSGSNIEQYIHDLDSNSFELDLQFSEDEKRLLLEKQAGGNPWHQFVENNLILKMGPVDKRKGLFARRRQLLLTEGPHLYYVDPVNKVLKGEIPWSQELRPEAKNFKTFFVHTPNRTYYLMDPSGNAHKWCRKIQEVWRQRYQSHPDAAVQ
# Sequence of TNK2 (Q07912 whole entry): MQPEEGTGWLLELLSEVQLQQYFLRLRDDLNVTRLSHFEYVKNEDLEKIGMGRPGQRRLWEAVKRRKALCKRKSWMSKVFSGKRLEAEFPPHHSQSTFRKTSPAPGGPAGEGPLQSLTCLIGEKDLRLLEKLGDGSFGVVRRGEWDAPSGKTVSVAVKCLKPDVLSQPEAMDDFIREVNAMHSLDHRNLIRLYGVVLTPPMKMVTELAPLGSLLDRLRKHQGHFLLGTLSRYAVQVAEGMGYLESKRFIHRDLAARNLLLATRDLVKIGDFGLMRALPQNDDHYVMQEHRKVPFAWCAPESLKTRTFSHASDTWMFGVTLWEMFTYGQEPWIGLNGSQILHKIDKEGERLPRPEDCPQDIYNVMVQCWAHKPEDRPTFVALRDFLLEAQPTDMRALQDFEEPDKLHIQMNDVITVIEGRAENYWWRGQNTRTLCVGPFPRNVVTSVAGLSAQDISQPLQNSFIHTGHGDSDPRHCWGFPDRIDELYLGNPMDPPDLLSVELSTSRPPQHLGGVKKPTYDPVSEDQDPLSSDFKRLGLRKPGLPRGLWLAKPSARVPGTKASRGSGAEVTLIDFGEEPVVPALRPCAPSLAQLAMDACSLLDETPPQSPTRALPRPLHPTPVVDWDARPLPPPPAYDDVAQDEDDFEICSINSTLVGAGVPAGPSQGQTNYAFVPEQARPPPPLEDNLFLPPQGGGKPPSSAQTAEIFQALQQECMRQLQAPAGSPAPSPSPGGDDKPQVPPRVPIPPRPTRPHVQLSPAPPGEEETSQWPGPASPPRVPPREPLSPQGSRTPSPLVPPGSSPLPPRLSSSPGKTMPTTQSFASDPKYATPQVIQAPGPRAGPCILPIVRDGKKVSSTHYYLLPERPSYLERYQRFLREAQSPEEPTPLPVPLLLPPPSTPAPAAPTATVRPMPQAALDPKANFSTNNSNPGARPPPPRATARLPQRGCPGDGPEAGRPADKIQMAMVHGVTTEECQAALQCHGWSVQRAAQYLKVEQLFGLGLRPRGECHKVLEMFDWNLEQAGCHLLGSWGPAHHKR
# Sequence of VEGFR2 (P35968 whole entry): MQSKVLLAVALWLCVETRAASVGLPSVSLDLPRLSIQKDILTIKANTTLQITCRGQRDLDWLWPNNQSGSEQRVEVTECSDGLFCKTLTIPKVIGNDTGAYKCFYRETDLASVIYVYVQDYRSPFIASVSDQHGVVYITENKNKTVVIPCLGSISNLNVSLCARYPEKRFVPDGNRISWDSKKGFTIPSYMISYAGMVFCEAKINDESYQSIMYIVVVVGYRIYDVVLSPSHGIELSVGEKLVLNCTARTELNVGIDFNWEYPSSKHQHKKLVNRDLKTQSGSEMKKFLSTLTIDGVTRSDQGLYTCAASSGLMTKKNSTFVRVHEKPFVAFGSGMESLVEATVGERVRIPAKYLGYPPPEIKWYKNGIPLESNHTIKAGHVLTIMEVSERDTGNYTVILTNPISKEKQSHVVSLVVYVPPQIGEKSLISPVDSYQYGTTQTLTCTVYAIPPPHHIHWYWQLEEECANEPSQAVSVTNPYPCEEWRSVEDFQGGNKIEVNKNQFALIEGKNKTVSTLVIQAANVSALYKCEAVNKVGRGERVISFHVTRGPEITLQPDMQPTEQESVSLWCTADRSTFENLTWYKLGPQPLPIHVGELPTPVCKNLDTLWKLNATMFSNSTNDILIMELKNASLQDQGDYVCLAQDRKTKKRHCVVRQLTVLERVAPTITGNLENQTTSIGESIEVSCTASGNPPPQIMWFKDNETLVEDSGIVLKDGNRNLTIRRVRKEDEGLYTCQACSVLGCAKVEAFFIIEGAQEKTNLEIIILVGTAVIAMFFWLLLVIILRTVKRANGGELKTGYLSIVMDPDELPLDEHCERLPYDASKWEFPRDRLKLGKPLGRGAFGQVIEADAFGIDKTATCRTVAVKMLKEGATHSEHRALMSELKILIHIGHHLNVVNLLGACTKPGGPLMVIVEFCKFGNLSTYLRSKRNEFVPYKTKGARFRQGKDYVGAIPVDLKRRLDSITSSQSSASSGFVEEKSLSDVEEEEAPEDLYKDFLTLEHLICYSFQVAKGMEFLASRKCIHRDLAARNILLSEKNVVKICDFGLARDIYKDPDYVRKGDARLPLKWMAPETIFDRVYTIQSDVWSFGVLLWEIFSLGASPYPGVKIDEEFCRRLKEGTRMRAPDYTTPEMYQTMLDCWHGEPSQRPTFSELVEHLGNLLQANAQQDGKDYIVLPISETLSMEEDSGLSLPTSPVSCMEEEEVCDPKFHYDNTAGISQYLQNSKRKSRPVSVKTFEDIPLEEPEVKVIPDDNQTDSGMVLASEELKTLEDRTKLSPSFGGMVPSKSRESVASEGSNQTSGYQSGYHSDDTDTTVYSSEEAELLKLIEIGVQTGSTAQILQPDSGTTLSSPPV
# Sequence of JAK3(JH1domain-catalytic) (P52333 whole entry): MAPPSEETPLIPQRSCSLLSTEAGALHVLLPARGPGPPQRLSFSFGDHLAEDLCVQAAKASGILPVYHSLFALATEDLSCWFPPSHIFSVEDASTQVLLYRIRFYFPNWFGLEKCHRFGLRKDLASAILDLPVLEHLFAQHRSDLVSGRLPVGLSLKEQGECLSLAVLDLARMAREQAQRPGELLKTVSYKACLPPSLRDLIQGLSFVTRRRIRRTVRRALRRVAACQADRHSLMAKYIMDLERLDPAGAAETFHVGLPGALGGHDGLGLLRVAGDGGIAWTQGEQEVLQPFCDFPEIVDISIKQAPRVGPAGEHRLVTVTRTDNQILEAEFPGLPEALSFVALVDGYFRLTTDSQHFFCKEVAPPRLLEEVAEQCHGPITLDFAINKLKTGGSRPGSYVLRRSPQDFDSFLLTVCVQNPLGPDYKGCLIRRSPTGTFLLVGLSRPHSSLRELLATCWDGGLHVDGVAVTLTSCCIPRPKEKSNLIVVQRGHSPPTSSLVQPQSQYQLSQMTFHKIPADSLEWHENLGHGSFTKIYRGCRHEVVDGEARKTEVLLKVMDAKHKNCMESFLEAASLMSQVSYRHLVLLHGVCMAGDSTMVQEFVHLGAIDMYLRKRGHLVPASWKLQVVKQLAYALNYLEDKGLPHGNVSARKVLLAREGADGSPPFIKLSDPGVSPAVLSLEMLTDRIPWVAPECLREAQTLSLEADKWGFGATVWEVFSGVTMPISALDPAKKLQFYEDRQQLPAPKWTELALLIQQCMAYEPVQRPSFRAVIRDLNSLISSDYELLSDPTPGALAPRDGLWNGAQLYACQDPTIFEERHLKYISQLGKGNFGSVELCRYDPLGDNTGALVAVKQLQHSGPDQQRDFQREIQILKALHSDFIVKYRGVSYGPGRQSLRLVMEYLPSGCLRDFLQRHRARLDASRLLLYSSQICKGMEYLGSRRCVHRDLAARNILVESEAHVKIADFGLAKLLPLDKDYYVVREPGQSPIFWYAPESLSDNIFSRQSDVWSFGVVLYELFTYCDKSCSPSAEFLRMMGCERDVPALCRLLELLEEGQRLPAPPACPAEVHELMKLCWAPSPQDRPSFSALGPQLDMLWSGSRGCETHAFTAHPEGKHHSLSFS
structure (smiles),measurement,setting,value
CN1CCN(c2ccc(Nc3nc(Oc4ccc(NC(=O)CCl)cc4)c4cc[nH]c4n3)cc2)CC1 [CPT1-70-1],remaining activity at 1 µM,[1]; [6],100%
same,remaining activity at 1 µM,[2]; [6],100%
same,remaining activity at 1 µM,[3]; [6],7.2%
same,remaining activity at 1 µM,[4]; [6],46%
same,remaining activity at 1 µM,STK33; [7],10%
same,remaining activity at 1 µM,[5]; [6],0%
same,remaining activity at 1 µM,PDPK1; [7],64%
same,remaining activity at 1 µM,PAK3; [7],50%
same,remaining activity at 1 µM,PLK3; [7],100%
same,remaining activity at 1 µM,RIOK2; [7],5.2%
same,remaining activity at 1 µM,PIK3CA(E545K); [7],84%
same,remaining activity at 1 µM,ULK2; [7],29%
same,remaining activity at 1 µM,TNK2; [7],100%
same,remaining activity at 1 µM,p38-alpha; [7],100%
same,remaining activity at 1 µM,TAK1; [7],3.6%
same,remaining activity at 1 µM,WEE2; [7],100%
same,remaining activity at 1 µM,PCTK3; [7],97%
same,remaining activity at 1 µM,"RSK4; read-out: CPT-1-70-1 (1μM) % control, Kin.Dom.1-N-terminal",45%
same,remaining activity at 1 µM,"RSK4; read-out: CPT-1-70-1 (1μM) % control, Kin.Dom.2-C-terminal",100%
same,remaining activity at 1 µM,PIK3CA(H1047L); [7],100%
same,remaining activity at 1 µM,VEGFR2; [7],40%
same,remaining activity at 1 µM,PHKG1; [7],100%
same,remaining activity at 1 µM,SLK; [7],77%
same,remaining activity at 1 µM,TEC; [7],10%
same,remaining activity at 1 µM,RIPK2; [7],100%
same,remaining activity at 1 µM,SRC; [7],6.6%
same,remaining activity at 1 µM,ZAK; [7],71%
same,remaining activity at 1 µM,LTK; [6],100%
same,remaining activity at 1 µM,DYRK1B; [6],79%
CCN1CCN(Cc2ccc(NC(=O)c3ccc(C)c(CCc4cnc5[nH]ccc5c4OC)c3)cc2C(F)(F)F)CC1 [HYJ-2-002-1],remaining activity at 1 µM,[1]; [8],0%
same,remaining activity at 1 µM,[2]; [8],0.7%
same,remaining activity at 1 µM,[3]; [8],0%
same,remaining activity at 1 µM,[4]; [8],9%
same,remaining activity at 1 µM,STK33; [9],66%
same,remaining activity at 1 µM,[5]; [8],2.4%
same,remaining activity at 1 µM,PDPK1; [9],72%
same,remaining activity at 1 µM,PAK3; [9],100%
same,remaining activity at 1 µM,PLK3; [9],100%
same,remaining activity at 1 µM,RIOK2; [9],35%
same,remaining activity at 1 µM,PIK3CA(E545K); [9],100%
same,remaining activity at 1 µM,ULK2; [9],88%
same,remaining activity at 1 µM,TNK2; [9],4.1%
same,remaining activity at 1 µM,p38-alpha; [9],0.25%
same,remaining activity at 1 µM,TAK1; [9],6.6%
same,remaining activity at 1 µM,WEE2; [9],21%
same,remaining activity at 1 µM,PCTK3; [9],100%
same,remaining activity at 1 µM,"RSK4; read-out: HYJ-2-002-1 (1μM) % control, Kin.Dom.1-N-terminal",100%
same,remaining activity at 1 µM,"RSK4; read-out: HYJ-2-002-1 (1μM) % control, Kin.Dom.2-C-terminal",28%
same,remaining activity at 1 µM,PIK3CA(H1047L); [9],100%
same,remaining activity at 1 µM,VEGFR2; [9],6.4%
same,remaining activity at 1 µM,PHKG1; [9],100%
same,remaining activity at 1 µM,SLK; [9],9.8%
same,remaining activity at 1 µM,TEC; [9],3.8%
same,remaining activity at 1 µM,RIPK2; [9],5.3%
same,remaining activity at 1 µM,SRC; [9],0.2%
same,remaining activity at 1 µM,ZAK; [9],3.9%
same,remaining activity at 1 µM,LTK; [8],89%
same,remaining activity at 1 µM,DYRK1B; [8],76%
